# Measurements published in patent US11555012B2 (Nimbus Artemis, Inc., priority 2018, dated 2023).
# pIC50: −log10 of the molar value.
# Target: ACL (Homo sapiens (Human), UniProt P53396)
# Assay: ADP-Glo Assay
# ACL, sequence (P53396 other isoform, or with tags, fused parts or gaps isoform P53396-2): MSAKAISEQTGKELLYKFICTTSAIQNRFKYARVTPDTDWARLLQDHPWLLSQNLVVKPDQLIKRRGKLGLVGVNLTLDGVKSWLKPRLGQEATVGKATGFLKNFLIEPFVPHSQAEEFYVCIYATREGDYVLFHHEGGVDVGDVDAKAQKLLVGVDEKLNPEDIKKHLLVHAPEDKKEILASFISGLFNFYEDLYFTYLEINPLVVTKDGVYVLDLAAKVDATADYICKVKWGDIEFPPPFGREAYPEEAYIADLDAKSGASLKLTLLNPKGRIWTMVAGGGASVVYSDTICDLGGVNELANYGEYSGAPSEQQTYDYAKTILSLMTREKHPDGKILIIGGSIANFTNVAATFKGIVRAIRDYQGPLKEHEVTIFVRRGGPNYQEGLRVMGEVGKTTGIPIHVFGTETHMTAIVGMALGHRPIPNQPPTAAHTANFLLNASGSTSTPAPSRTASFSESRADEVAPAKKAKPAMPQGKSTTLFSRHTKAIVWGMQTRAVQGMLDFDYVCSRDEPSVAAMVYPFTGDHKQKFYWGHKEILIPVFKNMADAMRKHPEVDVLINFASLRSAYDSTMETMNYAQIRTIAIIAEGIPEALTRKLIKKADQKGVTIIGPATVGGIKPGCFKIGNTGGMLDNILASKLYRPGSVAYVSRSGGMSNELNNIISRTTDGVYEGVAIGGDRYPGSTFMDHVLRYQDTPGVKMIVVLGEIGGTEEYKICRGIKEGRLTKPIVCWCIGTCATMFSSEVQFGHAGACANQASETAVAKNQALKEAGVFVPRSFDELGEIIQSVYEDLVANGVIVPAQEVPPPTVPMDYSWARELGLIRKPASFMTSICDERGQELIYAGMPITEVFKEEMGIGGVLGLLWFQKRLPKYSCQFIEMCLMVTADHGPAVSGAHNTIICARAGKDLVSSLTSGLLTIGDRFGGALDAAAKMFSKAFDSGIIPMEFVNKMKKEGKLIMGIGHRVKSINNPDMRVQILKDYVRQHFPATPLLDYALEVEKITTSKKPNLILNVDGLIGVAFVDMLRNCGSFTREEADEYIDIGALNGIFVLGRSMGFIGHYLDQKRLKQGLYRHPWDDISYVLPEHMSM
row,Structure (SMILES),pIC50
1,CC(C)(C)Cc1nc2cc(NS(=O)(=O)c3cc(Cl)cc(Cl)c3O)ccc2o1 [I-172],4.70 to 6.30
2,"COc1ccc(-c2ccccc2)cc1NS(=O)(=O)c1cc(Cl)cc(C#N)c1 [I-422, 3-chloro-5-cyano-N-(2-methoxy-5-phenylphenyl)benzene-1-sulfonamide]",< 4.70
3,"O=C(O)COc1ccc(-c2ccccc2)cc1NS(=O)(=O)c1cc(F)cc(Cl)c1 [I-238, 2-((3-((3-chloro-5-fluorophenyl)sulfonamido)-[1,1′-biphenyl]-4-yl)oxy)acetic Acid]",4.70 to 6.30
4,"O=C(O)c1cc(Cl)c(O)c(C(=O)Nc2cc(-c3ccccc3)c(F)cc2F)c1 [I-155, 3-chloro-5-((4,6-difluoro-[1,1′-biphenyl]-3-yl)carbamoyl)-4-hydroxybenzoic Acid]",4.70 to 6.30
5,O=C(O)c1ccc(-c2ccccc2)cc1NS(=O)(=O)CCc1ccccc1 [I-259],4.70 to 6.30
6,"COc1ccc(-c2cccnc2)cc1NS(=O)(=O)c1cc(C(=O)O)cc(Cl)c1OC [I-425, 3-chloro-4-methoxy-5-(N-(2-methoxy-5-(pyridin-3-yl)phenyl)sulfamoyl)benzoic Acid]",< 4.70
7,"O=C(O)CCCOc1ccc(-c2ccccc2)cc1NS(=O)(=O)c1cc(Cl)cc(Cl)c1 [I-291, 4-[[3-(3,5-dichlorobenzenesulfonamido)-[1,1-biphenyl]-4-yl]oxy]butanoic Acid]",4.70 to 6.30
8,"COc1ccc(-c2ccccc2)cc1NS(=O)(=O)c1cc(-c2nn[nH]n2)ccc1OC [I-442, 2-methoxy-N-(2-methoxy-5-phenylphenyl)-5-(2H-1,2,3,4-tetrazol-5-yl)benzene-1-sulfonamide]",< 4.70
9,"COC(=O)COc1c(Br)cc(Cl)cc1S(=O)(=O)Nc1cc(-c2ccccc2)ccc1F [I-78, Methyl 2-(2-bromo-4-chloro-6-(N-(4-fluoro-[1,1′-biphenyl]-3-yl)sulfamoyl)phenoxy)acetate]",4.70 to 6.30
10,"O=C(O)c1ccc(-c2ccccc2)cc1NS(=O)(=O)c1ccc(C(F)(F)F)cc1 [I-353, 3-((4-(trifluoromethyl)phenyl)sulfonamido)-[1,1′-biphenyl]-4-carboxylic acid]",4.70 to 6.30
11,"COc1ccccc1S(=O)(=O)Nc1cc(-c2ccccc2)ccc1F [I-441, N-[4-fluoro-[1,1-biphenyl]-3-yl]-2-methoxybenzene-1-sulfonamide]",< 4.70
12,O=C(O)c1ccc(-c2ccccc2)cc1NS(=O)(=O)CCOCCN1C(=O)c2ccccc2C1=O [I-360],4.70 to 6.30
13,"COc1ccc(-c2ccccc2)cc1NS(=O)(=O)c1cc(-c2nn[nH]n2)cc(Cl)c1O [I-73, 3-chloro-2-hydroxy-N-(2-methoxy-5-phenylphenyl)-5-(2H-1,2,3,4-tetrazol-5-yl)benzene-1-sulfonamide]",4.70 to 6.30
14,"COc1ccc(-c2ccccc2)cc1NS(=O)(=O)c1cc(C(=O)O)ccc1Cl [I-438, 4-chloro-3-[(2-methoxy-5-phenylphenyl)sulfamoyl]benzoic acid]",< 4.70
15,"O=S(=O)(Nc1cc(-c2ccccc2)ccc1O)c1cc(Cl)cc(Cl)c1 [I-224, 3,5-dichloro-N-(4-hydroxy-[1,1′-biphenyl]-3-yl)benzenesulfonamide]",4.70 to 6.30
16,"O=C(O)c1ccc(-c2ccccc2)cc1NS(=O)(=O)c1cccc(Cl)c1 [I-273, 3-((3-chlorophenyl)sulfonamido)-[1,1′-biphenyl]-4-carboxylic acid]",4.70 to 6.30
17,"COc1ccc(-c2ccccc2)cc1NS(=O)(=O)c1cc(Cl)cc(C(=O)O)c1O [I-3, 5-chloro-2-hydroxy-3-(N-(4-methoxy-[1,1′-biphenyl]-3-yl)sulfamoyl)benzoic Acid]",4.70 to 6.30
18,"COc1ccc(-c2ccccc2)cc1NS(=O)(=O)c1cc(C(=O)O)cs1 [I-408, 5-(N-(4-methoxy-[1,1′-biphenyl]-3-yl)sulfamoyl) thiophene-3-carboxylic acid]",< 4.70
19,"Cc1cccc(CS(=O)(=O)Nc2cc(-c3ccccc3)ccc2C(=O)O)c1 [I-310, 3-((m-tolylmethyl)sulfonamido)-[1,1′-biphenyl]-4-carboxylic acid]",4.70 to 6.30
20,"CC(=O)NCCNC(=O)c1cc(Cl)c(O)c(S(=O)(=O)Nc2cc(-c3ccccc3)c(F)cc2F)c1 [I-161, N-(2-[[3-chloro-5-([4,6-difluoro-[1,1-biphenyl]-3-yl]sulfamoyl)-4-hydroxyphenyl]formamido]ethyl)acetamide]",4.70 to 6.30
21,"COc1ccc(-c2cccnc2)cc1NS(=O)(=O)c1cc(C(=O)O)cc(Cl)c1O [I-427, 3-chloro-4-hydroxy-5-(N-(2-methoxy-5-(pyridin-3-yl)phenyl)sulfamoyl)benzoic Acid]",< 4.70
22,"COc1c(Cl)cc(C(=O)O)cc1S(=O)(=O)Nc1cc(-c2ccccc2)ccc1F [I-70, 3-chloro-5-([4-fluoro-[1,1-biphenyl]-3-yl]sulfamoyl)-4-methoxybenzoic Acid]",4.70 to 6.30
23,"O=C(O)c1ccc(-c2ccccc2)cc1NS(=O)(=O)c1ccc2[nH]ncc2c1 [I-301, 3-(1H-indazole-5-sulfonamido)-[1,1′-biphenyl]-4-carboxylic Acid]",4.70 to 6.30
24,"O=S(=O)(Nc1cc(-c2ccccc2)ccc1F)c1cc(Cl)c(O)cc1O [I-54, 5-chloro-N-(2-fluoro-5-phenylphenyl)-2,4-dihydroxybenzene-1-sulfonamide]",4.70 to 6.30
25,O=C(O)c1ccc(-c2ccccc2)cc1NS(=O)(=O)c1ccc(-n2cccn2)c(F)c1 [I-358],4.70 to 6.30

# Now from value to compound:
row,pIC50,Structure (SMILES)
1,4.70 to 6.30,O=S(=O)(Nc1cccc2cccc(F)c12)c1cc(Cl)cc(Cl)c1O [I-186]
2,4.70 to 6.30,"COC(=O)c1ccc(F)c(NS(=O)(=O)c2cc(Cl)cc(Cl)c2O)c1 [I-43, Methyl 3-((3,5-dichloro-2-hydroxyphenyl)sulfonamido)-4-fluorobenzoate]"
3,< 4.70,"O=C(O)c1ccc(NS(=O)(=O)c2cc(Cl)cc(Cl)c2O)cc1Cl [I-412, 2-chloro-4-[(3,5-dichloro-2-hydroxybenzene)sulfonamido]benzoic acid]"
4,4.70 to 6.30,O=S(=O)(NC1CCN(c2ccccc2)C1)c1cc(Cl)cc(Cl)c1O (stereo not drawn) [I-183]
5,4.70 to 6.30,"COc1ccc(N2CCCCC2)cc1NS(=O)(=O)c1cc(Cl)cc(Cl)c1O [I-10, 3,5-dichloro-2-hydroxy-N-(2-methoxy-5-(piperidin-1-yl)phenyl)benzenesulfonamide]"
6,4.70 to 6.30,"COc1ccc(NC(=O)C2CC2)cc1NS(=O)(=O)c1cc(Cl)cc(Cl)c1O [I-8, N-(3-((3,5-dichloro-2-hydroxyphenyl)sulfonamido)-4-methoxyphenyl) cyclopropanecarboxamide]"
7,4.70 to 6.30,CC(C)Oc1ccc(F)cc1NS(=O)(=O)c1cc(Cl)cc(Cl)c1O [I-163]
8,< 4.70,"COc1ccc(-c2ccccc2)cc1NS(=O)(=O)c1cc(Cl)cc(Cl)c1N [I-414, 2-amino-3,5-dichloro-N-(2-methoxy-5-phenylphenyl) benzene-1-sulfonamide]"
9,4.70 to 6.30,"O=S(=O)(Nc1sccc1-c1ccccc1)c1cc(Cl)cc(Cl)c1O [I-89, 3,5-dichloro-2-hydroxy-N-(3-phenylthiophen-2-yl) benzenesulfonamide]"
10,< 4.70,"O=C(O)c1cc(Cl)c(O)c(S(=O)(=O)Nc2ccc(F)c(-c3ccccc3)c2F)c1 [I-444, 3-chloro-5-[(2,4-difluoro-3-phenylphenyl)sulfamoyl]-4-hydroxybenzoic acid]"
11,4.70 to 6.30,O=S(=O)(Nc1cnc(-c2ccccc2)s1)c1cc(Cl)cc(Cl)c1O [I-189]
